# Reference: US12319683B2, “Azabenzimidazole compounds and pharmaceutical” (NIPPON SHINYAKU CO., LTD., priority 2018, dated 2025)
# Structures can show the parent of a compound that is named as a salt.
# Test system: SD female rats
# Test: Effect on the increase in intravesical pressure induced by electrical stimulation of the pelvic nerve in anesthetized rats
# Format: in vivo, rat
# Details: intravenous, 0.1 mg/kg
row,SMILES,nicotinic side effect (fasciculation)
1,"CN(CCCCCCN(C)C(=O)Oc1ccc[n+](C)c1)C(=O)Oc1ccc[n+](C)c1 [distigmine bromide, reference compound]",observed

# Test system: SD female rats
# Test: as above
# Format: in vivo, rat
# Details: Rattus norvegicus, iv, 1 h, read-out: Percentage Change (%) Rc of AUC of increase of intravesical pressure (maximum during 1 hour after administration)
# Experimental: For evaluation of in vivo effect on neurogenic bladder contraction, effects of the test compounds on the increase in intravesical pressure induced by electrical stimulation of the pelvic nerve in rats were determined according to the following method.
# SD female rats (Japan SLC, Inc.) were anesthetized by subcutaneous administration of 1200 mg/kg of urethane (Wako Pure Chemical Corporation), and the lower abdomens of the rats were incised in the midline. After the ureters were ligated and cut at locations proximal to the bladder, a cannula (PE-60, BECTON DICKINSON) for cystometry was inserted into the bladder through the external urethral orifice and fixed with sutures. After injecting saline (about 200 μL) via the cannula inserted into the bladder, the other end of the cannula was connected to a pressure transducer to measure intravesical pressure.
# The pelvic nerve near the urinary bladder of the rat was gently separated and dissected under stereomicroscope observation and attached to an electrode for nerve stimulation (K2-14015M-PT, BrainScience idea. Co., Ltd.). The peritoneal cavity of the rat was filled with liquid paraffin (26114-75, NACALAI TESQUE, INC.). After the postoperative rest period, an electrical stimulator (SEN-7203, NIHON KOHDEN CORPORATION) was used to stimulate the pelvic nerve to induce increase in intravesical pressure. The stimulation frequency was 8 Hz, the pulse width was 0.3 ms, and the stimulation time was 10 seconds. The voltage of the electrical stimulator was adjusted so that the increase in intravesical pressure was about 50-70% of that at stimulation with 10 V.
# The electric stimulation was repeated with an interval of 10 minutes. After the increase of intravesical pressure induced by electric stimulation was stabilized three times or more, a test compound (dosage 0.3 mg/kg), distigmine bromide (dosage 0.03, 0.1 mg/kg) or a vehicle was intravenously administered at 1.0 mL/kg via the catheter placed into femoral vein. The effect of the test compound on increase of intravesical pressure was measured for 1 hour. Saline was used as a vehicle, and the test compound was dissolved in dimethyl sulfoxide before adding to the vehicle. The final concentration of dimethyl sulfoxide was 10%.
# The response data (intravesical pressure) were recorded on a personal computer via data collection and analysis system (PowerLab®, ADInstruments) and analyzed using analysis software (LabChart®, ADInstruments). For each electric stimulation, AUC of increase of intravesical pressure (area under the curve of transition of intravesical pressure) was calculated, and percentage change Rc (unit: %) compared to the value (AUC) before the administration of the test compound was calculated according to the following equation (2). In the equation (2), Ab is AUC before administering a test compound, and Aa is AUC after administering a test compound. In addition, the maximum effect observed during 1 hour after administering the test compound (maximum percentage change Rc) was defined as the effect of the test compound. The higher percentage change Rc, the higher effect on enhancement of bladder contraction force and increase of intravesical pressure. Rc=100×(Aa−Ab)/Ab (2)
row,SMILES,change in vivo at 0.3 mg/kg [%]
1,"CCOc1cc(-c2cc(N(C)CC3(COC)CCCC3)c3[nH]c(-c4cnc(N5[C@@H]6CC[C@H]5C[C@@H](OCC(=O)O)C6)cn4)nc3n2)cc(C(F)(F)F)n1 [Example 15, Sodium {[(1R,3r,5S)-8-(5-{5-[2-ethoxy-6-(trifluoromethyl)pyridin-4-yl]-7-[{[1-(methoxymethyl)cyclopentyl]methyl}(methyl)amino]-1H-imidazo[4,5-b]pyridin-2-yl}pyrazin-2-yl)-8-azabicyclo[3.2.1]octan-3-yl]oxy}acetate]",276

# Same assay, conditions: Rattus norvegicus, iv, 1 h; anesthetized SD female rats, pelvic nerve electrical stimulation, test compound 0.3 mg/kg intravenously; read-out: Percentage Change (%) Rc of AUC of increase of intravesical pressure (maximum during 1 hour after administration)
row,SMILES,change in vivo at 0.3 mg/kg [%]
1,"CCOc1cc(-c2cc(N(C)CC(C)(C)COC)c3[nH]c(-c4cnc(N5CCC(C(=O)O)CC5)cn4)nc3n2)cc(C(F)(F)F)n1 [Example 1, 1-(5-{5-[2-Ethoxy-6-(trifluoromethyl)pyridin-4-yl]-7-[(3-methoxy-2,2-dimethylpropyl)(methyl)amino]-1H-imidazo[4,5-b]pyridin-2-yl}pyrazin-2-yl)piperidine-4-carboxylic acid]",326
2,"CCOc1cc(-c2cc(N(C)CC3(COC)CCCC3)c3[nH]c(-c4cnc(N5CCC(C(=O)O)CC5)cn4)nc3n2)cc(C(F)(F)F)n1 [Example 2, 1-(5-{5-[2-Ethoxy-6-(trifluoromethyl)pyridin-4-yl]-7-[{[1-(methoxymethyl)cyclopentyl]methyl}(methyl)amino]-1H-imidazo[4,5-b]pyridin-2-yl}pyrazin-2-yl)piperidine-4-carboxylic acid]",331
3,"CCOCC1(CN(C)c2cc(-c3cnc(C4CC4)c(C(F)(F)F)c3)nc3nc(-c4cnc(N5CCC(C(=O)O)CC5)cn4)[nH]c23)CCCC1 [Example 3, 1-(5-{5-[6-Cyclopropyl-5-(trifluoromethyl)pyridin-3-yl]-7-[{[1-(ethoxymethyl)cyclopentyl]methyl}(methyl)amino]-1H-imidazo[4,5-b]pyridin-2-yl}pyrazin-2-yl)piperidine-4-carboxylic acid]",311
4,"COCC1(CN(C)c2cc(-c3cc(C4CC4)nc(C(F)(F)F)c3)nc3nc(-c4cnc(N5CCC(OCC(=O)O)CC5)cn4)[nH]c23)CCCC1 [Example 4, {[1-(5-{5-[2-Cyclopropyl-6-(trifluoromethyl)pyridin-4-yl]-7-[{[1-(methoxymethyl)cyclopentyl]methyl}(methyl)amino]-1H-imidazo[4,5-b]pyridin-2-yl}pyrazin-2-yl)piperidin-4-yl]oxy}acetic acid]",123
5,"COCC1(CN(C)c2cc(-c3cnc(C4CC4)c(C(F)(F)F)c3)nc3nc(-c4cnc(N5CCN(CCC(=O)O)CC5)cn4)[nH]c23)CCCCC1 [Example 6, 3-[4-(5-{5-[6-Cyclopropyl-5-(trifluoromethyl)pyridin-3-yl]-7-[{[1-(methoxymethyl)cyclohexyl]methyl}(methyl)amino]-1H-imidazo[4,5-b]pyridin-2-yl}pyrazin-2-yl)piperazin-1-yl]propanoic acid]",571
6,"COCC1(CN(C)c2cc(-c3cnc(C4CC4)c(C(F)(F)F)c3)nc3nc(-c4cnc(N5CCN(CCC(=O)O)C[C@H]5C)cn4)[nH]c23)CCCCC1 [Example 7, 3-[(3R)-4-(5-{5-[6-Cyclopropyl-5-(trifluoromethyl)pyridin-3-yl]-7-[{[1-(methoxymethyl)cyclohexyl]methyl}(methyl)amino]-1H-imidazo[4,5-b]pyridin-2-yl}pyrazin-2-yl)-3-methylpiperazin-1-yl]propanoic acid]",608
7,"COC[C@@H]1CN(c2cnc(-c3nc4nc(-c5cnc(C6CC6)c(C(F)(F)F)c5)cc(N(C)CC5(COC)CCCCC5)c4[nH]3)cn2)CCN1CCC(=O)O [Example 8, 3-[(2S)-4-(5-{5-[6-Cyclopropyl-5-(trifluoromethyl)pyridin-3-yl]-7-[{[1-(methoxymethyl)cyclohexyl]methyl}(methyl)amino]-1H-imidazo[4,5-b]pyridin-2-yl}pyrazin-2-yl)-2-(methoxymethyl)piperazin-1-yl]propanoic acid]",374
8,"COCC1(CN(C)c2cc(-c3cnc(C4CC4)c(C(F)(F)F)c3)nc3nc(-c4ccc(OC5CCN(CC(=O)O)CC5)cc4F)[nH]c23)CCCC1 [Example 10, [4-(4-{5-[6-Cyclopropyl-5-(trifluoromethyl)pyridin-3-yl]-7-[{[1-(methoxymethyl)cyclopentyl]methyl}(methyl)amino]-1H-imidazo[4,5-b]pyridin-2-yl}-3-fluorophenoxy)piperidin-1-yl]acetic acid]",82.6
9,"CCOc1cc(-c2cc(N(C)CC3(COC)CCC3)c3[nH]c(-c4cnc(N5CCC(C(=O)O)CC5)cn4)nc3n2)cc(C(F)(F)F)n1 [Example 11, 1-(5-{5-[2-Ethoxy-6-(trifluoromethyl)pyridin-4-yl]-7-[{[1-(methoxymethyl)cyclobutyl]methyl}(methyl)amino]-1H-imidazo[4,5-b]pyridin-2-yl}pyrazin-2-yl)piperidine-4-carboxylic acid dihydrochloride]",270
10,"CCOCC1(CN(C)c2cc(-c3cnc(C4CC4)c(C(F)(F)F)c3)nc3nc(-c4cnc(N5CCN(CCC(=O)O)C[C@H]5C)cn4)[nH]c23)CCCC1 [Example 14, Sodium 3-[(3R)-4-(5-{5-[6-cyclopropyl-5-(trifluoromethyl)pyridin-3-yl]-7-[{[1-(ethoxymethyl)cyclopentyl]methyl}(methyl)amino]-1H-imidazo[4,5-b]pyridin-2-yl}pyrazin-2-yl)-3-methylpiperazin-1-yl]propanoate]",400
11,"COCC1(CN(C)c2cc(-c3cc(C4CC4)nc(C(F)(F)F)c3)nc3nc(-c4cnc(N5CCN(CCC(=O)O)C[C@H]5C)cn4)[nH]c23)CCCCC1 [Example 16, Sodium 3-[(3R)-4-(5-{5-[2-cyclopropyl-6-(trifluoromethyl)pyridin-4-yl]-7-[{[1-(methoxymethyl)cyclohexyl]methyl}(methyl)amino]-1H-imidazo[4,5-b]pyridin-2-yl}pyrazin-2-yl)-3-methylpiperazin-1-yl]propanoate]",182
12,"COCC1(CN(C)c2cc(-c3cnc(C4CC4)c(C(F)(F)F)c3)nc3nc(-c4cnc(N5CCN(CCC(=O)O)C[C@H]5C)cn4)[nH]c23)CCCC1 [Example 20, Sodium 3-[(3R)-4-(5-{5-[6-Cyclopropyl-5-(trifluoromethyl)pyridin-3-yl]-7-[{[1-(methoxymethyl)cyclopentyl]methyl}(methyl)amino]-1H-imidazo[4,5-b]pyridin-2-yl}pyrazin-2-yl)-3-methylpiperazin-1-yl]propanoate]",249
13,COCC1(CN(C)c2cc(-c3cc(F)cc(C(F)(F)F)c3)nc3nc(-c4cnc(N5CCN(CC(=O)O)CC5)cn4)[nH]c23)CCC1 [Example 37],91.2
14,COCC1(CN(C)c2cc(-c3cc(F)cc(C(F)(F)F)c3)nc3nc(-c4cnc(N5CCC(F)(C(=O)O)CC5)cn4)[nH]c23)CCC1 [Example 38],98.1
15,CCOc1ncc(-c2cc(N(C)CC3(COC)CCC3)c3[nH]c(-c4cnc(N5CCC(C(=O)O)CC5)cn4)nc3n2)cc1C(F)(F)F [Example 42],119
16,CCOc1ncc(-c2cc(N(C)CC3(COC)CCCC3)c3[nH]c(-c4ccc(N5CCC(C(=O)O)CC5)cc4F)nc3n2)cc1C(F)(F)F [Example 68],133

# Same assay, conditions: anesthetized rats, intravenous; test compound 0.3 mg/kg, distigmine bromide 0.03, 0.1 mg/kg; electrical stimulation of pelvic nerve
row,SMILES,enhancement effect on bladder contractility
1,"CN(CCCCCCN(C)C(=O)Oc1ccc[n+](C)c1)C(=O)Oc1ccc[n+](C)c1 [distigmine bromide, reference compound]",showed enhancement of bladder contractility
